Experimental data from ChEMBL document CHEMBL3352258 (J Med Chem, 2014).
Converted amounts (≈) assume the structure as drawn. The source made the active and inactive calls. The rule behind the calls is not given here.

What was measured:
Mus musculus [1] = experiment: Antidiabetic activity in db/db mouse assessed as reduction in glucose AUC at 300 mg/kg, po qd administered 1 hr prior glucose challenge measured after 21 days by oral glucose tolerance test relative to control; assay type: functional; design: scale not given: the % may be the effect or the level left
Mus musculus [2] = experiment: Antidiabetic activity in db/db mouse assessed as HbA1C level at 300 mg/kg, po qd administered 1 hr prior glucose challenge measured after 21 days by oral glucose tolerance test (reference value: 2.8%); assay type: functional
[3] = Inhibition of cytochrome P450 (unknown origin); assay type: ADME, Homo sapiens
Homo sapiens [4] = experiment: Antidiabetic activity in po dosed human assessed as increase in 24 hrs GLP1 AUC measured on day 1; assay type: functional, organism-based
Homo sapiens [5] = experiment: Toxicity in human at 0.1 to 120 mg, po; assay type: organism-based; settings: in vivo
[6] = target: T1, Nuclear receptor subfamily 1 group I member 2 (Homo sapiens, UniProt O75469); experiment: Activation of PXR (unknown origin); assay type: ADME
T1 sequence (O75469 whole entry): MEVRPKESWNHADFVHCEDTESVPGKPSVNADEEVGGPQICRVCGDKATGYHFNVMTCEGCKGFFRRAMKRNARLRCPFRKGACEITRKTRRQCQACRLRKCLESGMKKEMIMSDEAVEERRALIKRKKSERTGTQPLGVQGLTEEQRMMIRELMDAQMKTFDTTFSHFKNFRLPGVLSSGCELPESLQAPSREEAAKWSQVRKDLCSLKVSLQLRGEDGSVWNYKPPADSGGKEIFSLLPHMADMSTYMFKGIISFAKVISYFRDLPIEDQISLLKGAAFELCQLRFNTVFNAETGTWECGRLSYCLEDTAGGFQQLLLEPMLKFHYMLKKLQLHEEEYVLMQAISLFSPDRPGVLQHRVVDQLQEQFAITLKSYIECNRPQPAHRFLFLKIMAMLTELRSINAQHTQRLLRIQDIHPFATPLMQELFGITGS

HepG2 = experiment: Cytotoxicity against human HepG2 cells at 40 uM; assay type: cell-based; settings: hepg2, 40 µM
Homo sapiens [7] = experiment: Antidiabetic activity in human assessed as increase in total GLP1 AUC at 10 mg, po measured on day 1; assay type: functional
Mus musculus [8] = experiment: Antidiabetic activity in db/db mouse assessed as reduction in blood glucose level at 0.01 mg/kg, po qd administered 1 hr prior glucose challenge measured after 21 days by oral glucose tolerance test; assay type: functional; design: scale not given: the % may be the effect or the level left
Mus musculus [9] = experiment: Antidiabetic activity in C57BL/6J mouse assessed as reduction in glucose AUC at 0.1 mg/kg, po by oral glucose tolerance test relative to vehicle-treated control; assay type: functional; design: scale not given: the % may be the effect or the level left
Oryctolagus cuniculus = species: Oryctolagus cuniculus; experiment: Toxicity in rabbit at plasma concentration 20 uM by electrophysiology study; assay type: organism-based; settings: in vivo
Mus musculus [10] = experiment: Antidiabetic activity in C57BL/6J mouse assessed as reduction in glucose AUC at 1 mg/kg, po by oral glucose tolerance test relative to vehicle-treated control; assay type: functional; design: scale not given: the % may be the effect or the level left
Rattus norvegicus [11] = experiment: Half life in Sprague-Dawley rat at 5 mg/kg, po; assay type: ADME, organism-based; design: dose 5 mg/kg, route oral; settings: in vivo
[12] = target: T2, Glucose-dependent insulinotropic receptor (Homo sapiens, UniProt Q8TDV5); experiment: Agonist activity at human GPR119
T2 sequence (Q8TDV5 whole entry): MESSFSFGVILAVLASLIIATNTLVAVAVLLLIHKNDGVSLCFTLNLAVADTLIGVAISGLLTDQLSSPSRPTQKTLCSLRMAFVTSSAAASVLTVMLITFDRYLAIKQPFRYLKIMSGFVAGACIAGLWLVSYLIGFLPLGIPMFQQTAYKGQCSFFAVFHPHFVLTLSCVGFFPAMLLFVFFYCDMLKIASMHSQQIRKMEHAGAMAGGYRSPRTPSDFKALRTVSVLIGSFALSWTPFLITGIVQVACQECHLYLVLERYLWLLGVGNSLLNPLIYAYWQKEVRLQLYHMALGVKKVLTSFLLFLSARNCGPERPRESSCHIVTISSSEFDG

[13] = Volume of distribution at steady state in Sprague-Dawley rat at 1 mg/kg, iv; assay type: ADME, organism-based; design: dose 1 mg/kg, route intravenous; settings: in vivo, read-out: Vdss
Homo sapiens [14] = experiment: Antidiabetic activity in human assessed as increase in total GLP1 AUC at 0.6 mg, po measured on day 1; assay type: functional
Mus musculus [15] = experiment: Antidiabetic activity in C57BL/6J mouse assessed as reduction in glucose AUC at 0.3 mg/kg, po by oral glucose tolerance test relative to vehicle-treated control; assay type: functional; design: scale not given: the % may be the effect or the level left
Mus musculus [16] = experiment: Antidiabetic activity in C57BL/6J mouse assessed as reduction in glucose AUC at 0.03 mg/kg, po by oral glucose tolerance test relative to vehicle-treated control; assay type: functional; design: scale not given: the % may be the effect or the level left
Rattus norvegicus [17] = experiment: AUC (total) in Sprague-Dawley rat at 5 mg/kg, po; assay type: ADME, organism-based, Plasma; design: dose 5 mg/kg, route oral; settings: in vivo
Homo sapiens [18] = experiment: Antidiabetic activity in human assessed as reduction in 24 hrs glucose AUC at 0.1 to 120 mg, po measured on day 1; assay type: functional, organism-based
[19] = Solubility of the compound at pH 6.5; assay type: physicochemical; settings: buffer
Rattus norvegicus [20] = experiment: Stimulation of glucose-induced GLP-1 release in cannulated Sprague-Dawley rat at 0.3 mg/kg, po administered 1 hr prior glucose challenge relative to vehicle-treated control; assay type: functional, organism-based; design: dose 0.3 mg/kg
Mus musculus [21] = experiment: Antidiabetic activity in db/db mouse assessed as reduction in blood glucose level at 3 mg/kg, po qd administered 1 hr prior glucose challenge measured after 21 days by oral glucose tolerance test; assay type: functional; design: scale not given: the % may be the effect or the level left
[22] = Half life in human liver microsomes; assay type: ADME
Rattus norvegicus [23] = experiment: Stimulation of glucose-induced GLP-1 release in cannulated Sprague-Dawley rat at 0.3 mg/kg, po administered 1 hr prior glucose challenge in presence of DPP4 inhibitor relative to vehicle-treated control; assay type: functional, organism-based; design: dose 0.3 mg/kg
Mus musculus [24] = experiment: Antidiabetic activity in db/db mouse assessed as reduction in blood glucose level at 0.03 mg/kg, po qd administered 1 hr prior glucose challenge measured after 21 days by oral glucose tolerance test; assay type: functional; design: scale not given: the % may be the effect or the level left
[25] = Protein binding in human plasma; assay type: ADME, cell-free; settings: read-out: PPB (converted)
Rattus norvegicus [26] = experiment: Tmax in Sprague-Dawley rat at 5 mg/kg, po; assay type: ADME, organism-based; design: dose 5 mg/kg, route oral; settings: in vivo
[27] = Oral bioavailability in Sprague-Dawley rat at 5 mg/kg administered as suspension; assay type: ADME, organism-based; settings: in vivo
[28] = Solubility of the compound in 50% PEG400/ 50% PBS solution; assay type: physicochemical
[29] = Terminal half life in human at 0.1 to 120 mg, po; assay type: ADME, organism-based; settings: in vivo, read-out: beta t1/2 (converted)
Rattus norvegicus [30] = experiment: Cmax in Sprague-Dawley rat at 5 mg/kg, po; assay type: ADME, organism-based; design: dose 5 mg/kg, route oral; settings: in vivo
Cynomolgus monkey = experiment: Toxicity in cynomolgus monkey at plasma concentration 20 uM by electrophysiology study; assay type: organism-based, Macaca fascicularis; settings: in vivo
[31] = Oral bioavailability in Sprague-Dawley rat at 5 mg/kg administered as HMPC SDD formulation; assay type: ADME, organism-based; settings: in vivo
[32] = Clearance in Sprague-Dawley rat at 1 mg/kg, iv; assay type: ADME, organism-based; design: dose 1 mg/kg, route intravenous; settings: in vivo
[33] = Half life in mouse; assay type: ADME, organism-based; settings: in vivo
Mus musculus [34] = experiment: Antidiabetic activity in db/db mouse assessed as increase in fasting plasma insulin level at 0.01 to 0.3 mg/kg, po qd administered 1 hr prior glucose challenge measured after 21 days; assay type: functional, organism-based
Mus musculus [35] = experiment: Antidiabetic activity in db/db mouse assessed as reduction in blood glucose level at 30 mg/kg, po qd administered 1 hr prior glucose challenge measured after 21 days by oral glucose tolerance test; assay type: functional; design: scale not given: the % may be the effect or the level left
Salmonella typhimurium = experiment: Genotoxicity in Salmonella typhimurium; assay type: toxicity, organism-based; settings: salmonella enterica subsp. enterica serovar typhimurium
Mus musculus [36] = experiment: Antidiabetic activity in db/db mouse assessed as HbA1C level at 30 mg/kg, po qd administered 1 hr prior glucose challenge measured after 21 days by oral glucose tolerance test (reference value: 2.8%); assay type: functional
Mus musculus [37] = experiment: Antidiabetic activity in db/db mouse assessed as reduction in blood glucose level at 0.3 mg/kg, po qd administered 1 hr prior glucose challenge measured after 21 days by oral glucose tolerance test; assay type: functional; design: scale not given: the % may be the effect or the level left
Mus musculus [38] = experiment: Antidiabetic activity in db/db mouse assessed as reduction in glucose AUC at 3 mg/kg, po qd administered 1 hr prior glucose challenge measured after 21 days by oral glucose tolerance test relative to control; assay type: functional; design: scale not given: the % may be the effect or the level left
[39] = AUC in C57BL/6 mouse at 30 mg/kg, po; assay type: ADME, organism-based; design: dose 30 mg/kg, route oral; settings: plasma
Mus musculus [40] = experiment: Antidiabetic activity in db/db mouse assessed as reduction in HbA1C level at 0.3 mg/kg, po qd administered 1 hr prior glucose challenge measured after 21 days by oral glucose tolerance test relative to control; assay type: functional; design: scale not given: the % may be the effect or the level left
[41] = Solubility of the compound at pH 1; assay type: physicochemical; settings: buffer
[42] = Cmax in C57BL/6 mouse at 30 mg/kg, po after 2 hrs; assay type: ADME, organism-based; design: dose 30 mg/kg, route oral; settings: in vivo
[43] = Permeability of the compound across human Caco2 cells; assay type: ADME, cell-based; settings: Caco-2, read-out: permeability
Mus musculus [44] = experiment: Antidiabetic activity in db/db mouse assessed as reduction in HbA1C level at 3 mg/kg, po qd administered 1 hr prior glucose challenge measured after 21 days by oral glucose tolerance test relative to control; assay type: functional; design: scale not given: the % may be the effect or the level left
[45] = target: T3, Glucose-dependent insulinotropic receptor (Homo sapiens) (UniProt Q8TDV5); experiment: Intrinsic activity at human GPR119 relative to control
T3 sequence (whole entry): T2 sequence (Q8TDV5 whole entry)

[46] = Protein binding in rat plasma; assay type: ADME, cell-free; settings: read-out: PPB
Mus musculus [47] = experiment: Antidiabetic activity in db/db mouse assessed as reduction in glucose AUC at 30 mg/kg, po qd administered 1 hr prior glucose challenge measured after 21 days by oral glucose tolerance test relative to control; assay type: functional; design: scale not given: the % may be the effect or the level left
hERG (KCNH2) = hERG (KCNH2) (Homo sapiens, UniProt Q12809); experiment: Inhibition of human ERG at 10 uM by patch clamp assay
[48] = Permeability of the compound by PAMPA assay; assay type: ADME; settings: read-out: permeability
[49] = Terminal half life in C57BL/6 mouse at 30 mg/kg, po; assay type: ADME, organism-based; design: dose 30 mg/kg, route oral; settings: in vivo, read-out: beta t1/2 (converted)

Sequence of hERG (KCNH2) (Q12809 whole entry): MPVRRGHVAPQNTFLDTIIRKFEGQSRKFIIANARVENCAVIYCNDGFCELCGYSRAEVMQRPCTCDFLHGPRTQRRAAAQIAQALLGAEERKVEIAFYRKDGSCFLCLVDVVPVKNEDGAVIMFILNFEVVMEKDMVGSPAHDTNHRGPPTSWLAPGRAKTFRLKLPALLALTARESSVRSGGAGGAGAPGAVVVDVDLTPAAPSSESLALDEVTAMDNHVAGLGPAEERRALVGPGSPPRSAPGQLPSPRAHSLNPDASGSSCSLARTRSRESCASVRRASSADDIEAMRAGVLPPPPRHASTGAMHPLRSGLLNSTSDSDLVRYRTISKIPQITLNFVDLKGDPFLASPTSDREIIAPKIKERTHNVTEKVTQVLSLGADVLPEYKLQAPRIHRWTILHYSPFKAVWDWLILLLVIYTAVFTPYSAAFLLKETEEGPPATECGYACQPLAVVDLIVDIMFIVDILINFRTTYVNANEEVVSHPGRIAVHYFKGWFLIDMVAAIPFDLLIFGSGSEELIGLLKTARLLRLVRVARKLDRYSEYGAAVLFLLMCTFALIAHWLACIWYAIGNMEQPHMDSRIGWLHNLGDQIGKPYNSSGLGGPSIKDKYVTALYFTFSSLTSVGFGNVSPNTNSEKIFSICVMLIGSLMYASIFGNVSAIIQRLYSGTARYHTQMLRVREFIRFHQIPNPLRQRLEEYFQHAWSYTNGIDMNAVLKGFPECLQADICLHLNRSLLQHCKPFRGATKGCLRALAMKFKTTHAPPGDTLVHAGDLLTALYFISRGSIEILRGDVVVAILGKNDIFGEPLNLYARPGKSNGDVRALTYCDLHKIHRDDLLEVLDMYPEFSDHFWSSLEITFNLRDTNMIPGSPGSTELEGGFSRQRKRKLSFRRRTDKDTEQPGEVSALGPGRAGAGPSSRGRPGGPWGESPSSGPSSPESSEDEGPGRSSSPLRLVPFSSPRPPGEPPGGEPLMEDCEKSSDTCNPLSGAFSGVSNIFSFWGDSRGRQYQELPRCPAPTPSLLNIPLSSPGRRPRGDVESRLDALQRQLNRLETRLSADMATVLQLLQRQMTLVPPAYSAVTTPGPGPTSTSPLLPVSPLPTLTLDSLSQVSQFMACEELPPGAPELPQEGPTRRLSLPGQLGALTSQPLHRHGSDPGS

CN(C)C(=N)NC(=N)N [METFORMIN]
Activity (Mus musculus [1]): 83% | Activity (Mus musculus [2]): 1.4%

CS(=O)(=O)c1ccc(-n2cc(Cl)c(OC3CCN(c4ncc(Cl)cn4)CC3)cc2=O)c(F)c1 [BMS-903452]
IC50 [3]: > 40 µM | Activity (Homo sapiens [4]): Dose-dependent effect | Activity (Homo sapiens [5]): Non-toxic | EC50 [6]: > 50 µM | Activity (HepG2): Non-toxic | Activity (Homo sapiens [7]): 50% | Activity (Mus musculus [8]): 18% | Activity (Mus musculus [9]): 37% | Activity (Oryctolagus cuniculus): Non-toxic | Activity (Mus musculus [10]): 40% | t1/2 (Rattus norvegicus [11]): 0.367 h | EC50 [12]: 0.014 µM | Vd [13]: 2.2 L/kg | Activity (Homo sapiens [14]): 20% | Activity (Mus musculus [15]): 39% | Activity (Mus musculus [16]): 14% | AUC (Rattus norvegicus [17]): 95 µM·h | Activity (Homo sapiens [18]): inactive | solubility [19]: < 1 µg/mL | Activity (Rattus norvegicus [20]): Active | Activity (Mus musculus [21]): 13% | half-life [22]: 1.4 h | Activity (Rattus norvegicus [23]): Active | Activity (Mus musculus [24]): 36% | fraction unbound [25]: 0.005 | Tmax (Rattus norvegicus [26]): 4 h | bioavailability [27]: 33% | solubility [28]: 41 µg/mL (≈ 79.9 µM) | half-life [29]: 36 h | Cmax (Rattus norvegicus [30]): 2.7 µM | Activity (Cynomolgus monkey): Non-toxic | bioavailability [31]: 87% | clearance [32]: 1.5 mL/min/kg | half-life [33]: 0.25 h | Activity (Mus musculus [34]): Active | Activity (Mus musculus [35]): 38% | Activity (Salmonella typhimurium): Non-toxic

CCCc1cnc(N2CCC(Oc3ccn(-c4ccc(S(C)(=O)=O)cc4F)c(=O)c3)CC2)nc1
IC50 [3]: > 40 µM | EC50 [6]: > 50 µM | Activity (Mus musculus [36]): 1.4% | Activity (HepG2): Non-toxic | Activity (Mus musculus [37]): 16% | Activity (Mus musculus [38]): 32% | EC50 [12]: 0.018 µM | AUC [39]: 245 µM·h | Activity (Mus musculus [40]): 0.6% | solubility [41]: 630 µg/mL (≈ 1290 µM) | Cmax [42]: 38.6 µM | Papp [43]: 22 ×10⁻⁶ cm/s | Activity (Mus musculus [44]): 0.4% | Intrinsic activity [45]: 1 | fraction unbound [46]: 0.01 | Activity (Mus musculus [47]): 38% | inhibition at 10 µM (hERG (KCNH2)): 47% | Papp [48]: 32 ×10⁻⁶ cm/s | half-life [49]: 2.4 h
